{
  "source": "patent US9181318B2",
  "about": "“Method of screening a drug such as insulin secretagogue” (JNC Corporation, priority 2009, dated 2015)",
  "tested_on": "insulin-GLase-expressed MIN6 cells (mouse pancreatic β cells)",
  "assay": "Secretion of insulin-GLase fusion protein from transformed MIN6 cells, luminescence (luciferase) activity in the medium",
  "assay_type": "cell-based",
  "details": "glibenclamide in low glucose-modified KRHB buffer; aliquots taken 0-30 minutes; control 2 mM glucose; FIG. 9",
  "description": "Mouse pancreatic β cells, MIN6 strains, were cultured in high glucose DMEM (manufactured by Sigma) supplemented with 10% fetal calf serum (manufactured by Invitrogen) and 50 μM of 2-mercaptoethanol. The expression vector obtained in EXAMPLE 1-1 was transfected to the MIN6 cell line using LipofectAMINE 2000 (manufactured by Invitrogen). After the transfection, the cells were incubated in a CO2 incubator at 37° C. for 24 hours. The secretion expression of the fusion Gaussia luciferase protein in the transformant was confirmed by measuring the luminescence activity with a Luminometer AB2200 (manufactured by Atto Corporation) using coelenterazine as a luminescent substrate, in accordance with the method described in Biochem. Biophys. Res. Commun., 365, 96-101 (2007). As a result, the luminescence activity in the cultured medium by high glucose (20 mM glucose) stimulation to the transformed MIN6 cells increased by about 7 times as compared to that prior to the treatment (FIG. 1). […] Glibenclamide, which is a sulfonylurea type hypoglycemic agent, promotes the secretion of endogenous insulin to lower blood glucose levels. This promotion of insulin secretion was examined using the insulin-GLase-expressed MIN6 cells to assess the effect. […]",
  "data": [
    {"smiles": "COc1ccc(Cl)cc1C(=O)NCCc1ccc(S(=O)(=O)NC(=O)NC2CCCCC2)cc1", "note": "[glibenclamide, Glibenclamide]", "values": [
      {"measurement": "insulin secretion (luciferase activity of secreted insulin-GLase)", "result": "promoted"}
    ]}
  ]
}
